From patent US12660819B2, “Herbicidal derivatives” (SYNGENTA CROP PROTECTION AG, priority 2020, dated 2026)

Tests used:
Assay type in all cases: in vivo
[1] = system: Zea mays (ZEAMX); assay: Post-emergence Test (glasshouse, percentage damage to the plant); settings: post-emergence; 1000 g/ha unless otherwise stated; evaluated after 13 days
Procedure, shortened: (§1)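 Percentage damage to the plant, assessed 13 days after application and scored 1–5 in 20% bands. Pots sown in standard soil received compound at 1000 g/ha unless otherwise stated, sprayed under 24/16 °C, 14 h light, 65% humidity.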

[2] = system: Amaranthus retoflexus (AMARE); assay: as above; settings: post-emergence; 1000 g/ha unless otherwise stated; evaluated after 13 days
Procedure, shortened: as §1

[3] = system: Ipomoea hederacea (IPOHE); assay: as above; settings: post-emergence; 1000 g/ha unless otherwise stated; evaluated after 13 days
Procedure, shortened: as §1

[4] = system: Setaria faberi (SETFA); assay: as above; settings: post-emergence; 1000 g/ha unless otherwise stated; evaluated after 13 days
Procedure, shortened: as §1

[5] = system: Echinochloa crus-galli (ECHCG); assay: as above; settings: post-emergence; 1000 g/ha unless otherwise stated; evaluated after 13 days
Procedure, shortened: as §1

[6] = system: Amaranthus palmeri (AMAPA); assay: as above; settings: post-emergence; 1000 g/ha unless otherwise stated; evaluated after 13 days
Procedure, shortened: as §1

[7] = system: Ipomoea hederacea (IPOHE); assay: Pre-emergence Test (glasshouse, percentage damage to the plant); settings: 1000 g/ha unless otherwise stated, Ipomoea hederacea
[8] = system: Amaranthus palmeri (AMAPA); assay: as above; settings: 1000 g/ha unless otherwise stated, Amaranthus palmeri
[9] = system: Amaranthus retoflexus (AMARE); assay: as above; settings: 1000 g/ha unless otherwise stated, Amaranthus retoflexus
[10] = system: Zea mays (ZEAMX); assay: as above; settings: 1000 g/ha unless otherwise stated, Zea mays
[11] = system: Echinochloa crus-galli (ECHCG); assay: as above; settings: 1000 g/ha unless otherwise stated, Echinochloa crus-galli
[12] = system: Setaria faberi (SETFA); assay: as above; settings: 1000 g/ha unless otherwise stated, Setaria faberi

| Structure (SMILES) | ZEAMX, percentage damage caused to the plant (five-point scale) [1] | AMARE, percentage damage caused to the plant (five-point scale) [2] | IPOHE, percentage damage caused to the plant (five-point scale) [3] | SETFA, percentage damage caused to the plant (five-point scale) [4] | ECHCG, percentage damage caused to the plant (five-point scale) [5] | AMAPA, percentage damage caused to the plant (five-point scale) [6] | percentage damage to the plant, IPOHE (five-point scale) [7] | percentage damage to the plant, AMAPA (five-point scale) [8] | percentage damage to the plant, AMARE (five-point scale) [9] | percentage damage to the plant, ZEAMX (five-point scale) [10] | percentage damage to the plant, ECHCG (five-point scale) [11] | percentage damage to the plant, SETFA (five-point scale) [12] |
| --- | --- | --- | --- | --- | --- | --- | --- | --- | --- | --- | --- | --- |
| Cc1c(-c2ccc(F)cc2F)c(=O)c(C(=O)O)c(-c2ccc(Cl)c(Cl)c2)n1C [Compound 252, 2-(3,4-dichlorophenyl)-5-(2,4-difluorophenyl)-1,6-dimethyl-4-oxo-pyridine-3-carboxylic acid] | 2 (2=21-40%) | 4 (4=61-80%) | 2 (2=21-40%) | 4 (4=61-80%) | 5 (5=81-100%) | 5 (5=81-100%) | 3 (3=41-60%) | 5 (5=81-100%) | 3 (3=41-60%) | 0 | 5 (5=81-100%) | 4 (4=61-80%) |
| CCn1c(C)c(-c2ccc(F)cc2)c(=O)c(C(=O)O)c1-c1cnc(Cl)c(Cl)c1 [Compound 211, 2-(5,6-dichloro-3-pyridyl)-1-ethyl-5-(4-fluorophenyl)-6-methyl-4-oxo-pyridine-3-carboxylic acid] | 1 (1=0-20%) | 2 (2=21-40%) | 1 (1=0-20%) | 1 (1=0-20%) | 1 (1=0-20%) | 3 (3=41-60%) | 0 | 4 (4=61-80%) | 1 (1=0-20%) | 0 | 1 (1=0-20%) | 0 |
| CCn1c(C)c(-c2cc(OCCOC)c(Cl)cc2F)c(=O)c(C(=O)O)c1-c1ccc(Cl)c(Cl)c1 [Compound 244, 5-[4-chloro-2-fluoro-5-(2-methoxyethoxy)phenyl]-2-(3,4-dichlorophenyl)-1-ethyl-6-methyl-4-oxo-pyridine-3-carboxylic acid] | 5 (5=81-100%) | 5 (5=81-100%) | 3 (3=41-60%) | 5 (5=81-100%) | 5 (5=81-100%) | 5 (5=81-100%) | 3 (3=41-60%) | 5 (5=81-100%) | 5 (5=81-100%) | 0 | 5 (5=81-100%) | 5 (5=81-100%) |
| CCn1c(CBr)c(-c2ccc(Cl)cc2)c(=O)c(C(=O)OC)c1-c1ccc(Cl)c(Cl)c1 [Compound 218, methyl 6-(bromomethyl)-5-(4-chlorophenyl)-2-(3,4-dichlorophenyl)-1-ethyl-4-oxo-pyridine-3-carboxylate] | 1 (1=0-20%) | 3 (3=41-60%) | 0 | 2 (2=21-40%) | 1 (1=0-20%) | 3 (3=41-60%) | 0 | 0 | 0 | 0 | 0 | 0 |
| CCn1c(C)c(-c2ccc(Cl)cc2)c(=O)c(C(=O)OC)c1-c1cnc(Cl)c(Cl)c1 [Compound 215, methyl 5-(4-chlorophenyl)-2-(5,6-dichloro-3-pyridyl)-1-ethyl-6-methyl-4-oxo-pyridine-3-carboxylate] | 3 (3=41-60%) | 4 (4=61-80%) | 1 (1=0-20%) | 3 (3=41-60%) | 3 (3=41-60%) | 4 (4=61-80%) | 1 (1=0-20%) | 3 (3=41-60%) | 4 (4=61-80%) | 0 | 2 (2=21-40%) | 4 (4=61-80%) |
| CCn1c(C)c(-c2ccc(Cl)cc2)c(=O)c(C(=O)O)c1-c1ccc(F)c(Cl)c1 [Compound 258, 2-(3-chloro-4-fluoro-phenyl)-5-(4-chlorophenyl)-1-ethyl-6-methyl-4-oxo-pyridine-3-carboxylic acid] | 5 (5=81-100%) | 4 (4=61-80%) | 3 (3=41-60%) | 5 (5=81-100%) | 5 (5=81-100%) | 5 (5=81-100%) | 1 (1=0-20%) | 5 (5=81-100%) | 5 (5=81-100%) | 1 (1=0-20%) | 5 (5=81-100%) | 5 (5=81-100%) |
| CCn1c(C)c(-c2cc(OC(C)C)c(Cl)cc2F)c(=O)c(C(=O)O)c1-c1ccc(F)c(F)c1 [Compound 260, 5-(4-chloro-2-fluoro-5-isopropoxy-phenyl)-2-(3,4-difluorophenyl)-1-ethyl-6-methyl-4-oxo-pyridine-3-carboxylic acid] | 3 (3=41-60%) | 4 (4=61-80%) | 3 (3=41-60%) | 4 (4=61-80%) | 4 (4=61-80%) | 4 (4=61-80%) | 3 (3=41-60%) | 4 (4=61-80%) | 4 (4=61-80%) | 1 (1=0-20%) | 5 (5=81-100%) | 4 (4=61-80%) |
| CCn1c(C)c(-c2cc(OCC3CC3)c(Cl)cc2F)c(=O)c(C(=O)O)c1-c1ccc(Cl)c(Cl)c1 [Compound 246, 5-[4-chloro-5-(cyclopropylmethoxy)-2-fluoro-phenyl]-2-(3,4-dichlorophenyl)-1-ethyl-6-methyl-4-oxo-pyridine-3-carboxylic acid] | 3 (3=41-60%) | 5 (5=81-100%) | 2 (2=21-40%) | 3 (3=41-60%) | 4 (4=61-80%) | 5 (5=81-100%) | 0 | 5 (5=81-100%) | 5 (5=81-100%) | 0 | 4 (4=61-80%) | 2 (2=21-40%) |
